Reference: PubChem BioAssay (NCI)
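Method: 48-hour compound exposure of cells in 96-well plates, five concentrations, linear interpolation of endpoints. At the GI50, growth is halved. Definition used: TGI = concentration required for complete inhibition of growth.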

How the values were obtained:
Experiment in all cases: inhibition of tumour cell growth, NCI panel, 48 h
[1] = test system: MALME-3M melanoma
[2] = test system: SK-OV-3 ovarian
[3] = test system: TK-10 renal
[4] = test system: T-47D breast
[5] = test system: HOP-92 NSCLC
[6] = test system: MCF7 breast
[7] = test system: M14 melanoma
[8] = test system: MOLT-4 leukemia
[9] = test system: HCT-15 colon
[10] = test system: BT-549 breast

| SMILES | GI50 [1] [µM] | TGI [1] [µM] | GI50 [2] [µM] | TGI [2] [µM] | GI50 [3] [µM] | TGI [3] [µM] | GI50 [4] [µM] | TGI [4] [µM] | GI50 [5] [µM] | TGI [5] [µM] | GI50 [6] [µM] | TGI [6] [µM] | GI50 [7] [µM] | TGI [7] [µM] | GI50 [8] [µM] | TGI [8] [µM] | GI50 [9] [µM] | TGI [9] [µM] | GI50 [10] [µM] | TGI [10] [µM] |
| --- | --- | --- | --- | --- | --- | --- | --- | --- | --- | --- | --- | --- | --- | --- | --- | --- | --- | --- | --- | --- |
| CCOC(=O)c1sc(NC(=O)COc2cccc(/C=C3\CCc4cc(OC)ccc4C3=O)c2)nc1C | 47 | > 100 | 6.39 | > 100 | 21.7 | > 100 | 3.75 | > 100 | 16.9 | 36.9 | 3.03 | > 100 | 7.95 | > 100 | 2.94 | 12.2 | 2.93 | > 100 | 3.26 | > 100 |
| O=C(Nc1ccc(Cl)cc1)Nc1nccs1 | 3.37 | 54.1 | 5.04 | > 100 | 10.2 | 93.1 | 2.38 | > 100 | 2.14 | 34 | 0.439 | > 100 | 0.543 | 27.5 | 4.8 | 84.2 | 0.46 | > 100 | 8.68 | 57.9 |
| Oc1ccc(N=Nc2nccs2)c(O)c1 | 14.7 | 34.3 | 6.97 | 62.6 | 14 | 59.3 | 4.87 | 40.1 | 3.34 | 24.7 | 3.06 | 15.1 | 11 | 48.4 | 3.1 | 20.3 | 2.85 | 14.9 | 16.1 | 57.6 |
| CC(Cl)CN1c2ccccc2Sc2ccc(Cl)cc21 (centres undefined) |  | > 10 |  | > 10 |  | > 10 |  | > 10 |  | > 10 |  | > 10 |  | > 10 |  | > 10 |  | > 10 |  | > 10 |
| Clc1nc(Cl)c2ncn(Cc3ccccc3Cn3cnc4c(Cl)nc(Cl)nc43)c2n1 | 0.211 | 6.18 | 15.3 | 33.7 | 2.93 | 11 | 1.73 | 4.71 | 1.9 | 4.16 | 0.922 | 4.99 | 5.13 | 10 | 1.99 | 5.13 | 1.47 | 3.32 | 0.165 | 1.52 |
| COc1ccc(-c2ccc(NNC(=O)c3ccc(F)cc3)nn2)cc1OC | > 100 | > 100 | > 100 | > 100 | > 100 | > 100 | 28.1 | > 100 | 17.8 | 99.3 | 93.4 | > 100 | > 100 | > 100 | 40.6 | > 100 | 65.5 | > 100 | 22.9 | > 100 |
| c1ccc2c(c1)c1ccccc1c1ccccc21 | > 100 | > 100 | > 100 | > 100 | > 100 | > 100 | > 100 | > 100 | > 100 | > 100 | > 100 | > 100 | > 100 | > 100 | 77.3 | > 100 | > 100 | > 100 | > 100 | > 100 |
| N#CC(C#N)=C1CCCOc2c1ccc1ccccc21 | > 100 | > 100 | > 100 | > 100 | 42.9 | > 100 | > 100 | > 100 | 15.8 | 71.7 | > 100 | > 100 | > 100 | > 100 | 19.5 | 51 | > 100 | > 100 | 98.8 | > 100 |
| COc1ccc(-c2noc(N)c2-c2cc(OC)c3c(c2)OCO3)cc1 | 9.66 | > 100 | 4.54 | > 38.3 | 7.8 | > 100 | 3.61 | > 54.8 | 2.47 | 76.8 | 0.707 | > 100 | 1.3 | 7.02 | 1.98 | > 64.1 | 0.616 | > 100 | 3.01 | 61.9 |
| CC1=NC(C)(COC(=O)C2(C)NC(C)(CO)CO2)COC1=O (centres undefined) |  | > 100 |  | > 100 |  | > 100 |  | > 100 |  | > 100 |  | > 100 |  | > 100 |  | > 100 |  | > 100 |  | > 100 |
| O=[N+]([O-])c1ccc(Sc2c3ccccc3nc3ccccc23)cn1 |  | 19.9 |  | > 93 |  | 28.6 |  | 19.9 |  | 16.9 |  | 19.1 |  | 31.5 |  | 6.62 |  | 28.8 |  | 28.8 |
| COc1cc2c3c(n(CCCN(C)CCO)c(=O)c2cc1OC)-c1cc2c(cc1C3=O)OCO2 | > 55.7 | > 100 | 11 | > 100 | 81.7 | > 100 | 10.8 | > 100 | 2.82 | 35.1 | > 28.3 | > 100 | 1.48 | > 68.9 | < 0.013 |  | 6.79 | > 100 | 3.13 | > 22.3 |
| COc1ccc(-c2cc(Nc3ccnc(N4CCOCC4)n3)on2)cc1 | 0.289 | 17.4 | 0.351 | 22.5 | 10.9 | 24.9 | 0.566 | 21.6 | 3.46 | 22.5 | 0.258 | 12.3 | 0.0957 | 14.8 | 0.766 | 25.5 | 0.0645 | 13 | 0.802 | 15.1 |
| CC(=O)NC1CONC1=O (centres undefined) |  | > 100 |  | > 100 |  | > 100 |  | > 100 |  | > 100 |  | > 100 |  | > 100 |  | > 100 |  | > 100 |  | > 100 |
| CC(C)(C)c1cc(C(=O)/C=C/c2ccc(C(=O)O)cc2)cc(C(C)(C)C)c1 |  | 7.99 |  | 12.5 |  | 11.9 |  | 19.8 |  | 19.7 |  | 14.8 |  | 3.89 |  | 8.31 |  | 4.12 |  | 6.61 |
